Source: patent US20220362184A1, “GUT-PROTECTIVE COMPOSITIONS COMPRISING BOSWELLIC ACID” (INVENTIA HEALTHCARE LIMITED, priority 2019, published 2022)

How the values were obtained:
[1] = tested on: Helicobacter pylori strains; assay: Micro-broth dilution antimicrobial activity (MIC, CLSI); type: cell-based; settings: growth inhibited >90% compared to growth control
Description: Micro-broth dilution method was used to determine the antimicrobial activity of boswellic acid composition against Helicobacter pylori strains. The anti-bacterial minimum inhibitory concentration (MIC) study was performed as per the Clinical and Laboratory Standards Institute (CLSI) guidelines.
The test compound (composition comprising boswellic acid) was dissolved using Methanol to a concentration of 12.8 mg/mL (stock). Amoxicillin was dissolved in sterile Phosphate buffer to a concentration of 2 mg/mL.

[2] = tested on: Dextran Sodium Sulphate (2.5% w/v) induced colitis in BALB/c mice; assay: Dextran Sodium Sulphate induced colitis, gut-protective effect; type: in vivo
Description: The compositions comprising boswellic acids are also evaluated for their gut-protective effect using Dextran Sodium Sulphate (2.5% w/v) induced colitis in BALB/c mice. Body weights of mice were recorded during study period, macroscopic examination was carried out for all terminal sacrificed, moribund and found dead animals. Colon and rectum were collected, and histopathology was performed. The composition comprising boswellic acid was also evaluated for gut-protective effect through antimicrobial activity against Helicobacter pylori strains using Micro-broth dilution method. The anti-bacterial minimum inhibitory concentration (MIC) was checked for the composition against Amoxycillin.
The gut-protective effect of composition comprising boswellic acids was evaluated using Dextran Sodium Sulphate (2.5% w/v) induced colitis in BALB/c mice. Dextran Sodium Sulphate (DSS) (36000 to 50000 Daltons molecular weight) was added in autoclaved drinking water and administered to the animals over 10 days for inducing disease condition. Group 2 served as disease control. Groups 3, 4 and 5 were treated with Test Item 1 (G3), Test Item 2 (G4) and Reference (Sulfasalazine—G5), respectively. Concurrent vehicle control group (G1) was also maintained.
Onset of colitis symptoms was monitored by measuring percent body weight, stool consistency (SC) and fecal occult blood (FOB). During the study period (10 days), Disease Activity Index (DAI) was calculated from scores of percent body weight, SC and FOB and were reported. Treatment was continued along with the DSS administration in drinking water up to 10 days by oral administration of Test and Reference Item as follows: • Group 1—Normal control (no DSS & no treatment) • Group 2—Disease control (only DSS, no treatment) • Group 3—DSS+Boswellic acid composition of Example 2: 41 mg/kg • Group 4—DSS+Boswellic acid composition of Example 4: 41 mg/kg • Group 5—DSS+Sulfasalazine: 30 mg/kg
Body weights were recorded daily throughout the study period. Macroscopic examination was carried out for all the terminal sacrificed, moribund and found dead animals. Colon and rectum were collected, and histopathology was performed.

| MIC [1] | SMILES | percentage of mortality during the study period ([2]; 10 days oral with DSS, compositions 41 mg/kg, sulfasalazine 30 mg/kg) | % body weight change ([2]; Day 10, disease control −20.34%, vehicle control −0.44%) | Mean Disease Activity Index (DAI) ([2]; females, Day 10, disease control 3.9) | Mean Disease Activity Index (DAI) ([2]; males, Day 10, disease control 3.1) |
| --- | --- | --- | --- | --- | --- |
| < 0.25 µg/mL | CC1(C)S[C@@H]2[C@H](NC(=O)[C@H](N)c3ccc(O)cc3)C(=O)N2[C@H]1C(=O)O [Amoxicillin] | – | – | – | – |
| – | O=C(O)c1cc(/N=N/c2ccc(S(=O)(=O)Nc3ccccn3)cc2)ccc1O [Sulfasalazine] | 20% | −17.77% | 3.2 | 3.6 |
